Measurements taken from ChEMBL document CHEMBL5104179, “Discovery and Structural Characterization of Small Molecule Binders of the Human CTLH E3 Ligase Subunit GID4” (J Med Chem, 2022).

Assays:
[1] = target: T1, Glucose-induced degradation protein 4 homolog (Homo sapiens) (UniProt Q8IVV7)
T1 sequence (whole entry): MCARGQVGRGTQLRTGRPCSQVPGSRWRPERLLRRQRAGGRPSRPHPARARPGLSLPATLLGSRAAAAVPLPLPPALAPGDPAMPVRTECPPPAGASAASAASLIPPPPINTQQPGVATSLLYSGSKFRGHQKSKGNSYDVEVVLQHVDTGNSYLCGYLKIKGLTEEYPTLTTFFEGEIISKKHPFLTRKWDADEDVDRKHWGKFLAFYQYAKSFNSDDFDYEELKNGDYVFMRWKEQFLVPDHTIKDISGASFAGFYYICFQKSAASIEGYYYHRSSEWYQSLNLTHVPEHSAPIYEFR
Description: Binding affinity to GID4 (124 to 289) (unknown origin) expressed in Escherichia coli BL21(DE3) assessed as change in melting temperature by differential scanning fluorimetry

[2] = target: T2, Glucose-induced degradation protein 4 homolog (Homo sapiens, UniProt Q8IVV7); experiment: Inhibition of GID4 (124 to 289) (unknown origin) expressed in Escherichia coli BL21(DE3) using PGLWKS-FITC peptide by competitive-fluorescence polarization binding assay
T2 sequence (Q8IVV7 whole entry): T1 sequence (whole entry)

[3] = target: T1, Glucose-induced degradation protein 4 homolog (Homo sapiens); details: HEK293, dose 50.0 µM, time 10.0 min

Which ΔTm [1] does the source give for `c1ccc(C2NCCc3sccc32)cc1` (configuration not stated) here?
The ΔTm was 7.9 °C.

With `CC1CSC(Nc2cccc3ccccc23)=N1` (configuration not stated) as the molecule, how does the ΔTm [1] read?
The ΔTm was 2.5 °C.

`C[C@H](N)c1ccc(Cl)cc1` was tested. Which ΔTm [1] did it give?
The ΔTm was > 1 °C.

Which ΔTm [1] does the source give for `CC1CN=C(Nc2ccc(F)cc2)S1` (racemic) here?
Its ΔTm is 3.2 °C.

For `O=C(O)c1ccc(-c2ccc(Cl)cc2)o1`, which ΔTm [1] is on record?
The ΔTm was > 1 °C.

`CC1CN=C(Nc2ccc(N(C)C)cc2)S1` (configuration not stated) was tested. Which ΔTm [1] did it give?
Its ΔTm is 3.1 °C.

How did the ΔTm [1] turn out when `CC1SC(Nc2ccc(F)cc2)=NC1=O` (configuration not stated) was run?
Its ΔTm is 0.6 °C.

How did the ΔTm [1] turn out when `OCc1ccc(C2NCCc3sccc32)cc1` (configuration not stated) was run?
Its ΔTm is 4.4 °C.

How did the ΔTm [1] turn out when `COc1cccc(C2NCCc3sccc32)c1` (configuration not stated) was run?
Its ΔTm is 7.6 °C.

How did the ΔTm [1] turn out when `COc1ccc(C2NCCc3sccc32)cc1` (racemic) was run?
The ΔTm was 4.5 °C.

Which ΔTm [1] does the source give for `CC(=O)c1ccc(NC2=NCC(C)S2)cc1` (configuration not stated) here?
Its ΔTm is -0.1 °C.

For `Brc1ccc(C2NCCc3sccc32)cc1` (configuration not stated), which ΔTm [1] is on record?
Its ΔTm is 4.2 °C.

For `O=[N+]([O-])c1ccccc1C1NCCc2sccc21` (configuration not stated), which ΔTm [1] is on record?
Its ΔTm is 4.1 °C.

For `Nc1ccccc1C1NCCc2sccc21` (configuration not stated), which ΔTm [1] is on record?
The ΔTm was 2.8 °C.

For `Fc1ccc(C2NCCc3sccc32)cc1` (configuration not stated), which ΔTm [1] is on record?
Its ΔTm is 3.8 °C.

For `CNC(=O)C1c2ccccc2CN1C(=O)[C@@H](Cc1c(C)[nH]c2ccccc12)NC(=O)CNCCOc1ccc(C)cc1` (some centres not stated), which ΔTm [1] is on record?
Its ΔTm is 0.1 °C.

Which ΔTm [1] does the source give for `N#Cc1ccc(C2NCCc3sccc32)cc1` (configuration not stated) here?
The ΔTm was 2 °C.

How did the ΔTm [1] turn out when `COc1ccc2c(c1)CCCC2c1ccccc1` (configuration not stated) was run?
The ΔTm was 6.4 °C.

`c1ccc(NC2=NCCS2)cc1` was tested. Which ΔTm [1] did it give?
Its ΔTm is 2.5 °C.

For `c1cc2c(s1)CCNC2`, which ΔTm [1] is on record?
The ΔTm was 1.9 °C.

With `CC1CN=C(Nc2cccc(F)c2)S1` (configuration not stated) as the molecule, how does the IC50 [2] read?
Its IC50 is 264 µM.

`Clc1ccc(CNCc2cccnc2)cc1` was tested. Which ΔTm [1] did it give?
Its ΔTm is > 1 °C.

`N#Cc1cccc(C2NCCc3sccc32)c1` (configuration not stated) was tested. Which ΔTm [1] did it give?
The ΔTm was 3.9 °C.

How did the ΔTm [1] turn out when `CC(=O)c1cccc(NC2=NCC(C)S2)c1` (configuration not stated) was run?
Its ΔTm is 3.2 °C.

`CC(=O)Oc1ccc(C2NCCc3sccc32)cc1` (configuration not stated) was tested. Which ΔTm [1] did it give?
Its ΔTm is 3.3 °C.

For `CCOc1ccc(NC2=NCC(C)S2)cc1` (configuration not stated), which ΔTm [1] is on record?
Its ΔTm is 0.8 °C.

`Clc1ccc(C2NCCc3sccc32)cc1` (configuration not stated) was tested. Which ΔTm [1] did it give?
The ΔTm was 5.1 °C.

`COc1ccc(NC2=NCC(C)S2)cc1` (configuration not stated) was tested. Which ΔTm [1] did it give?
The ΔTm was 3.1 °C.

`CC1CN=C(Nc2ccc(F)cc2F)S1` (configuration not stated) was tested. Which ΔTm [1] did it give?
Its ΔTm is 0.7 °C.

For `Oc1cccc(C2NCCc3sccc32)c1` (configuration not stated), which ΔTm [1] is on record?
The ΔTm was 6.1 °C.

With `O=[N+]([O-])c1cccc(C2NCCc3sccc32)c1` (configuration not stated) as the molecule, how does the ΔTm [1] read?
The ΔTm was 4.9 °C.

Which ΔTm [1] does the source give for `FC(F)(F)c1ccc(C2NCCc3sccc32)cc1` (configuration not stated) here?
Its ΔTm is 2.7 °C.

How did the ΔTm [1] turn out when `CNC(=O)[C@H](CC1CCCCC1)NC(=O)[C@@H](NC(=O)[C@H]1NC[C@@H]1c1ccccc1)c1ccsc1` was run?
Its ΔTm is 4.5 °C.

How did the ΔTm [1] turn out when `COc1cccc2c1CCNC2c1ccccc1` (configuration not stated) was run?
Its ΔTm is 4.4 °C.

Which ΔTm [1] does the source give for `NCc1ccccc1Oc1ccccc1` here?
Its ΔTm is > 1 °C.

`CC1(C)CN=C(Nc2ccc(F)cc2)S1` was tested. Which ΔTm [1] did it give?
The ΔTm was 1.2 °C.

How did the ΔTm [1] turn out when `Nc1ccc(C2NCCc3sccc32)cc1` (configuration not stated) was run?
The ΔTm was 7.1 °C.

`Clc1ccccc1C1NCCc2sccc21` (configuration not stated) was tested. Which ΔTm [1] did it give?
The ΔTm was 5 °C.

What does the source list for `CNC(=O)[C@H](CCc1ccccc1)NC(=O)[C@H](NC(=O)CNCc1ccc(OC)cc1OC)c1cccs1`?
ΔTm [3]: 3.8 °C; ΔTm [1]: 16 °C

For `FC(F)(F)c1ccccc1C1NCCc2sccc21` (configuration not stated), which ΔTm [1] is on record?
Its ΔTm is 5.3 °C.

How did the ΔTm [1] turn out when `c1cncc(C2NCCc3sccc32)c1` (configuration not stated) was run?
The ΔTm was 2.5 °C.
